Data: ChEMBL document CHEMBL5154638, “Molecular Plasticity of Crystalline CK2α' Leads to KN2, a Bivalent Inhibitor of Protein Kinase CK2 with Extraordinary Selectivity” (J Med Chem, 2022)

What was measured:
HeLa = test: cells; details: Homo sapiens, 24 h
in vitro = details: human, HEK293 cells

EC50 (HeLa) | EC50 at 24 h (in vitro) | SMILES
2.1 µM |  | O=C(O)c1ccc2c(c1)nc(Nc1cccc(Cl)c1)c1ccncc12 [SILMITASERTIB]
6.19 µM | 15.9 µM | O=C(CCC(=O)NCCc1ccc(Cl)c(Cl)c1)NCCCCn1cnc2c(Br)c(Br)c(Br)c(Br)c21
